Measurements from patent US9464007B2, “Antifungal wallboards and building materials and methods for the production thereof” (priority 2004, dated 2016).
Converted amounts (≈) assume the structure as drawn. “And” between values parts separate entries of the source, which are not always exact repeats. Equal entries are not always repeated. Where two headings read alike, the source gives them in different places.

Columns and labels:
Format in all cases: cell-based
Alternaria tenuissima = test: Liquid culture assay on 24 well plates, solo ai (EC95/MIC); conditions: for EC95: 24° C., 3-6 days; for MIC: Alternaria tenuissima, read-out: MIC Minimal Inhibition concentration
Protocol: (§1) Alternaria tenuissima, Penicillium citrinum, Stachybotrys chartarum, Aspergillus niger and Aureobasidium pullulans were separately cultivated on PDA media to […] sporulation. Spore suspensions were produced for each fungi.
(§2) Test method used: liquid culture assay on 24 well plates.
(§3) For solo (i.e. single) ai testing the formulated fungicide (100 ul) was filled into the 24 well plates (8 different rates: 100-0.05 mg ai/l final volume as described above) and 100 ul distilled water was added. Afterwards 800 ul of 0.3% PDA media was added to the plate. The spore suspension of the specific fungi was added to this media in advance containing approx. 100.000 spores/ml. The 24 well plates were sealed and incubated at 24° C.
(§4) Dependent on the growth properties of each organisms, the evaluation was done after 3 to 6 days, when the surface of the check well was covered with mycelium. The evaluation was performed by assessing the growth of the fungi related to the check growth. The results are expressed as % activity relative to the check (values of 0-100% growth). Afterwards the results were converted in % growth inhibition. EC95 values and also MIC (minimal inhibition concentration) values were derived for each compound.
(§5) For each solo compound a graph was drawn of percentage inhibition against the concentration of the fungicide. […] Also the concentration that gave the minimum inhibition concentration was derived as MIC value

Aspergillus niger [1] = test: as above; conditions: for EC95: 24° C., 3-6 days; for MIC: Aspergillus niger, read-out: MIC Minimal Inhibition concentration
Protocol: as §1, §2, §3, §4, §5

Aureobasidium pullulans [2] = test: as above; conditions: for EC95: 24° C., 3-6 days; for MIC: Aureobasidium pullulans, read-out: MIC Minimal Inhibition concentration
Protocol: as §1, §2, §3, §4, §5

Penicillium citrinum [3] = test: as above; conditions: for EC95: 24° C., 3-6 days; for MIC: Penicillium citrinum, read-out: MIC Minimal Inhibition concentration
Protocol: as §1, §2, §3, §4, §5

Stachybotrys chartarum [4] = test: as above; conditions: for EC95: 24° C., 3-6 days; for MIC: Stachybotrys chartarum, read-out: MIC Minimal Inhibition concentration
Protocol: as §1, §2, §3, §4, §5

Aureobasidium pullulans [5] = test: Synergy testing of 2-way mixtures, 24 well plates; conditions: A. pullulans
Protocol: (§6) For synergism testing of the 2-way mixtures 100 ul of each fungicide were filled into the 24 well plates (8 different rates) and 800 ul of 0.3% PDA media containing the spore suspension was added (see above). Different ratios of the 2 fungicide rates were tested at the same time.
as §1
(§7) For the mixtures of different fungicides the synergism was calculated based on the Colby equation, which is described below: […]
(§8) The fungicidal action to be expected, We, for a given combination of two fungicides can be calculated as follows (see COLBY, S. R. “Calculating synergistic and antagonistic response of herbicide combinations”. Weeds 15, pages 20-22; 1967): We=X+[Y×(100−X)/100] wherein:
(§9) If the activity actually observed is greater than the expected value We, there is a synergistic effect.
(§10) All rates below are expressed as mg ai/l (i.e. ppm).

Stachybotrys chartarum [6] = test: Fungal growth on agar medium containing fungicide, petri dish, visual assessment; conditions: for EC50: 528 h, read-out: Concentration required for 50% Activity; for EC50 / Concentration required for 80% Activity: after 22 days at 25° C.
Protocol: (§11) A fungal growth medium was made comprising yeast extract (4 g) agar (8 g), magnesium sulphate (0.2 g), sodium nitrate (2.4 g), potassium chloride (0.2 g), potassium dihydrogen orthophosphate (0.6 g), glycerol (8 ml), distilled water (390 ml). Fungicides as set out in Tables 1 to 4 were added at levels of 5000, 100, 10, 1, 0.1 and 0.01 mg fungicide/liter of growth medium to give six different growth medium compositions for each fungicide. These growth media containing the fungicide were each put into petri dishes.
(§12) Cladosporium cladosporoides, Oligoporus placenta, Stachybotrys chartarum and Memnionella echinata were separately propagated on Luria agar to suppress sporulation and mycelial plugs were transferred upside down onto the petri dishes containing the growth medium.
(§13) A visual assessment was made of the surface of the petri dishes. The result recorded was the percentage of the surface that remained free of fungus. This was recorded as percentage activity
(§14) For each fungicide, a graph was drawn of percentage activity against concentration of fungicide in the growth medium. From this graph, the concentrations of fungicide required to achieve 50%, 80% and 95% activity was estimated. These figures are given in the results tables.
1. Stachybotrys chartarum; Results after 22 days at 25° C.

Memnionella echinata = test: as above; conditions: after 23 days at 25° C.; for EC50: 552 h, read-out: Concentration required for 50% Activity
Protocol: as §11, §12, §13, §14
2. Memnionella echinata; Results after 23 days at 25° C.

[7] = system: Cladosporium cladosporioides; test: as above; conditions: for EC50: 624 h, read-out: Concentration required for 50% Activity; for EC50 / Concentration required for 80% Activity: after 26 days at 20° C.
Protocol: as §11, §12, §13, §14
3. Cladosporium cladosporioides; Results after 26 days at 20° C.

Oligoporus placenta = test: as above
Protocol: as §11, §12, §13, §14
4. Oligoporus placenta; Results.

Aspergillus niger [8] = test: Synergy testing of 2-way mixtures, 24 well plates; conditions: A. niger; for inh % (DFZ alone): rate (DFZ) 0.8 mg ai/l
Protocol: as §6, §1, §7, §8, §9, §10

Penicillium citrinum [9] = test: Synergy testing of 2-way mixtures, 24 well plates; conditions: P. citrinum, PPZ + DFZ test
Protocol: as §6, §1, §7, §8, §9, §10

Stachybotrys chartarum [10] = test: Synergy testing of 2-way mixtures, 24 well plates; conditions: S. chartarum; rate (FDL) 0.05 mg ai/l
Protocol: as §6, §1, §7, §8, §9, §10

[11] = A. tenuissima, rates 0-100 mg ai/l, mean values of n = 5
[12] = A. niger, rates 0-100 mg ai/l, mean values of n = 5
[13] = A. pullulans, rates 0-100 mg ai/l, mean values of n = 5
[14] = P. citrinum, rates 0-100 mg ai/l, mean values of n = 5
[15] = S. chartarum, rates 0-100 mg ai/l, mean values of n = 5

| SMILES | EC95 (Alternaria tenuissima; A. tenuissima) [mg ai/l] | MIC (Alternaria tenuissima; [11]) [µg/mL] | EC95 (Aspergillus niger [1]; A. niger) [mg ai/l] | MIC (Aspergillus niger [1]; [12]) [µg/mL] | EC95 (Aureobasidium pullulans [2]; A. pullulans) [mg ai/l] | MIC (Aureobasidium pullulans [2]; [13]) [µg/mL] | EC95 (Penicillium citrinum [3]; P. citrinum) [mg ai/l] | MIC (Penicillium citrinum [3]; [14]) [µg/mL] | EC95 (Stachybotrys chartarum [4]; S. chartarum) [mg ai/l] | MIC (Stachybotrys chartarum [4]; [15]) [µg/mL] | Concentration required for 95% Activity (Stachybotrys chartarum [6]) [mg/L] | EC50 (Stachybotrys chartarum [6]) [µg/mL] | Concentration required for 80% Activity (Stachybotrys chartarum [6]) [mg/L] | EC50 (Memnionella echinata) [µg/mL] | Concentration required for 80% Activity (Memnionella echinata) [mg/L] | Concentration required for 95% Activity [7] [mg/L] | EC50 [7] [µg/mL] | Concentration required for 80% Activity [7] [mg/L] | Concentration required for 95% Activity (Oligoporus placenta) [mg/L] | other results |
| --- | --- | --- | --- | --- | --- | --- | --- | --- | --- | --- | --- | --- | --- | --- | --- | --- | --- | --- | --- | --- |
| Cc1cc(C2CC2)nc(Nc2ccccc2)n1 [Cyprodinil] | >100 | > 100 | 7.4 | 12.5 (≈ 55.5 µM) | >100 | > 100 | >100 | > 100 | 46 | 50 (≈ 222 µM) |  |  |  |  |  |  |  |  |  | inh % (CDL alone) (Aureobasidium pullulans [5]; rate (CDL) 0.8 mg ai/l): 0%; inh % (CDL alone) (Aureobasidium pullulans [5]; rate (CDL) 1.6 mg ai/l): 10%; inh % (CDL alone) (Aureobasidium pullulans [5]; rate (CDL) 3.1 mg ai/l): 10%; inh % (CDL alone) (Aureobasidium pullulans [5]; rate (CDL) 12.5 mg ai/l): 30%; inh % (CDL alone) (Aureobasidium pullulans [5]; rate (CDL) 50 mg ai/l): 30%; inh % (CDL alone) (Aureobasidium pullulans [5]; rate (CDL) 100 mg ai/l): 30% |
| CC1COC(Cn2cncn2)(c2ccc(Oc3ccc(Cl)cc3)cc2Cl)O1 (centres unmarked) [Difenoconazole] |  |  |  |  |  |  |  |  |  |  | 23 | 0.68 (≈ 1.67 µM) | 3.5 | 5.4 (≈ 13.3 µM) | 43 | 0.79 | 0.04 (≈ 0.0985 µM) | 0.28 | <0.1 | inh % (DFZ alone) (Aspergillus niger [8]; DFZ + TBZ test): 10%; inh % (DFZ alone) (Aspergillus niger [8]; PPZ + DFZ test): 30%; inh % (DFZ alone) (Aureobasidium pullulans [5]; rate (DFZ) 0.05 mg ai/l, PPZ + DFZ test): 10%; inh % (DFZ alone) (Aureobasidium pullulans [5]; rate (DFZ) 0.2 mg ai/l, DFZ + FDL test): 70%; inh % (DFZ alone) (Aureobasidium pullulans [5]; rate (DFZ) 0.2 mg ai/l, DFZ + TBZ test, listed as DFZ): 70% and 90%; inh % (DFZ alone) (Aureobasidium pullulans [5]; rate (DFZ) 0.2 mg ai/l, PPZ + DFZ test): 70%; inh % (DFZ alone) (Aureobasidium pullulans [5]; rate (DFZ) 0.8 mg ai/l, DFZ + CDL test): 90%; inh % (DFZ alone) (Aureobasidium pullulans [5]; rate (DFZ) 0.8 mg ai/l, DFZ + TBZ test): 90%; inh % (DFZ alone) (Aureobasidium pullulans [5]; rate (DFZ) 1.6 mg ai/l, DFZ + CDL test): 90%; inh % (DFZ alone) (Aureobasidium pullulans [5]; rate (DFZ) 1.6 mg ai/l, DFZ + TBZ test): 90%; inh % (DFZ alone) (Aureobasidium pullulans [5]; rate (DFZ) 3.1 mg ai/l, DFZ + CDL test): 70%; inh % (DFZ alone) (Aureobasidium pullulans [5]; rate (DFZ) 3.1 mg ai/l, DFZ + FDL test): 70%; inh % (DFZ alone) (Aureobasidium pullulans [5]; rate (DFZ) 3.1 mg ai/l, DFZ + TBZ test): 70%; inh % (DFZ alone) (Aureobasidium pullulans [5]; rate (DFZ) 3.1 mg ai/l, PPZ + DFZ test): 50%; inh % (DFZ alone) (Penicillium citrinum [9]; rate (DFZ) 0.05 mg ai/l): 0%; inh % (DFZ alone) (Penicillium citrinum [9]; rate (DFZ) 0.2 mg ai/l): 10%; inh % (DFZ alone) (Penicillium citrinum [9]; rate (DFZ) 0.8 mg ai/l): 30% |
| N#Cc1c[nH]cc1-c1cccc2c1OC(F)(F)O2 [Fludioxonil] | 1.3 |  | >100 |  | >100 |  | 0.18 |  | 0.18 |  |  |  |  |  |  |  |  |  |  | MIC (Alternaria tenuissima): 1.6 µg/mL (≈ 6.45 µM); MIC (Aspergillus niger [1]): > 100 µg/mL; MIC (Aureobasidium pullulans [2]): > 100 µg/mL; MIC (Penicillium citrinum [3]): 0.2 µg/mL (≈ 0.806 µM); MIC (Stachybotrys chartarum [4]): 0.2 µg/mL (≈ 0.806 µM); inh % (FDL alone) (Aspergillus niger [8]; rate (FDL) 0.05 mg ai/l): 0%; inh % (FDL alone) (Aspergillus niger [8]; rate (FDL) 0.2 mg ai/l): 30%; inh % (FDL alone) (Aspergillus niger [8]; rate (FDL) 0.8 mg ai/l): 30%; inh % (FDL alone) (Aspergillus niger [8]; rate (FDL) 1.6 mg ai/l): 30%; inh % (FDL alone) (Aspergillus niger [8]; rate (FDL) 3.1 mg ai/l): 30%; inh % (FDL alone) (Aspergillus niger [8]; rate (FDL) 12.5 mg ai/l): 30%; inh % (FDL alone) (Aspergillus niger [8]; rate (FDL) 50 mg ai/l): 30%; inh % (FDL alone) (Aspergillus niger [8]; rate (FDL) 100 mg ai/l): 30%; inh % (FDL alone) (Aureobasidium pullulans [5]; rate (FDL) 0.8 mg ai/l): 10%; inh % (FDL alone) (Aureobasidium pullulans [5]; rate (FDL) 1.6 mg ai/l): 10%; inh % (FDL alone) (Aureobasidium pullulans [5]; rate (FDL) 3.1 mg ai/l): 10%; inh % (FDL alone) (Aureobasidium pullulans [5]; rate (FDL) 12.5 mg ai/l): 10%; inh % (FDL alone) (Aureobasidium pullulans [5]; rate (FDL) 50 mg ai/l): 10%; inh % (FDL alone) (Aureobasidium pullulans [5]; rate (FDL) 100 mg ai/l): 10%; inh % (FDL alone) (Stachybotrys chartarum [10]): 10% |
| CCCC1COC(Cn2cncn2)(c2ccc(Cl)cc2Cl)O1 (centres unmarked) [Propiconazole] |  |  |  |  |  |  |  |  |  |  | 360 | 15 (≈ 43.8 µM) | 49 | 88 (≈ 257 µM) | >100 | 4.5 | 0.19 (≈ 0.555 µM) | 1.7 | 0.4 | inh % (PPZ alone) (Penicillium citrinum [9]; rate (PPZ) 0.8 mg ai/l): 70% |
| c1ccc2[nH]c(-c3cscn3)nc2c1 [Thiabendazole] | >100 | > 100 | 3.1 | 3.1 (≈ 15.4 µM) | 15 | 50 (≈ 248 µM) | 0.72 | 0.8 (≈ 3.98 µM) | 46 | 50 (≈ 248 µM) | 91 | 17 (≈ 84.5 µM) | 49 | 28 (≈ 139 µM) | 65 | 8 | 0.78 (≈ 3.88 µM) | 3.5 | >5000 | inh % (TBZ alone) (Aspergillus niger [8]; rate (TBZ) 1.6 mg ai/l): 10%; inh % (TBZ alone) (Aureobasidium pullulans [5]; rate (TBZ) 12.5 mg ai/l): 70% |
